In patent publication US20210355104A1, “ADENOSINE RECEPTOR BINDING COMPOUNDS” (Nikang Therapeuticsm Inc., priority 2018, published 2021) one finds IC50 data, which are given here for 29 molecules.

Usually IC50 stands for the midpoint of a concentration-inhibition curve. Low values mean greater potency, high ones weaker potency.

The structures appear in SMILES notation. Some results are limits rather than exact numbers.

The target in one test is Adenosine A2A receptor (Homo sapiens, UniProt P29274). Briefly: Adenosine A2A receptor competitive binding assay (Tag-lite HTRF). Conditions: Tag-lite adenosine A2A receptor ligand binding, 2 h room temperature; values separated by / are repeat determinations. The method, then: Adenosine A2A Receptor Competitive Binding Assay
Sequence of Adenosine A2A receptor (P29274 whole entry): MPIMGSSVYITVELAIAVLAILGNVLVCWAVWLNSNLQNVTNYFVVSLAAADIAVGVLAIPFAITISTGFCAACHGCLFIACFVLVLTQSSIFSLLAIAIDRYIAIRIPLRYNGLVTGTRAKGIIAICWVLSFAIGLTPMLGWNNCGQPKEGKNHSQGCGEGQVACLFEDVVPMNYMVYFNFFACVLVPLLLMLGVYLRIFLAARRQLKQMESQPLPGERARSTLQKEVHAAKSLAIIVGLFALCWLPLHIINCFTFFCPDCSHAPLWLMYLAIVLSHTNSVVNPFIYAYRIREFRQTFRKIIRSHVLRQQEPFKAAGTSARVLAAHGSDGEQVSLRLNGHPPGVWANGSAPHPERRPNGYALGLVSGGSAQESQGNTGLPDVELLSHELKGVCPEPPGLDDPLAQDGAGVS
The Tag-lite adenosine A2A receptor ligand binding assay is a homogeneous alternative to radioligand binding assay and developed by Cisbio (Bedford, Mass.). We carried out this assay following Cisbio's instructions with minor modification. Pre-transfected, fluorescent donor-labelled cells (Cisbio Cat#: C1TT1A2A, 200 testes) was stored at −80° C. and thawed right before use. Cells were washed once with 5 ml TLB and gently resuspended in 2 ml TLB. 4 μl suspended cells was dispensed into each well of white low-volume 384-well plate (Greiner Bio-One). Serial dilutions of compounds were prepared in Tag-lite buffer (TLB, Cisbio Cat #: LABMED) to a DMSO concentration of 0.6%. After adding 4 μl of compound dilutions to each well, 4 μl60 nM Adenosine A2A receptor red antagonist fluorescent ligand (Cisbio Cat #: L0058RED) was dispensed to each well. The 384-well assay plate was centrifuged briefly and incubated at room temperature for 2 h. HTRF signals were measured using CIARIOstar plate reader (BMG Labtech).
For orientation: TR-FRET usually uses a lanthanide donor and a delayed reading to cut background.
Molecule `Cc1cc(-c2c(OCC3(O)CCOCC3)nc(N)nc2-c2ccc(F)cc2)cc(C(F)F)n1` [Example 104, 4-(((2-amino-5-(2-(difluoromethyl)-6-methylpyridin-4-yl)-6-(4-fluorophenyl)pyrimidin-4-yl)oxy)methyl)tetrahydro-2H-pyran-4-ol] registered an IC50 above 1 µM. In turn, `Cc1cc(-c2c(OCC3COC3)nc(N)nc2-c2ccc(F)cc2)cc(C(F)F)n1` [Example 37, 5-(2-(difluoromethyl)-6-methylpyridin-4-yl)-4-(4-fluorophenyl)-6-(oxetan-3-ylmethoxy)pyrimidin-2-amine] returned an IC50 of 0.0102 µM. The same measure, in the same setting: the value for `CCN(CC)C(=O)CCc1nc(N)nc(-c2ccccc2)c1-c1cc(C)nc(C(F)(F)F)c1` [Example 18, 3-(2-amino-5-(2-methyl-6-(trifluoromethyl)pyridin-4-yl)-6-phenylpyrimidin-4-yl)-N,N-diethylpropanamide] was 0.433 µM; that for `Cc1cc(-c2c(OCCc3ccc(N4CCN(S(C)(=O)=O)CC4)cc3)nc(N)nc2-c2ccc(F)cc2)cc(C(F)F)n1` [Example 58, 5-(2-(difluoromethyl)-6-methylpyridin-4-yl)-4-(4-fluorophenyl)-6-(4-(4-(methylsulfonyl)piperazin-1-yl)phenethoxy)pyrimidin-2-amine] was 0.028 µM; that for `Cc1cc(-c2c(OCCN3CCN(C)CC3)nc(N)nc2-c2ccc(F)cc2)cc(C(F)F)n1` [Example 35, 5-(2-(difluoromethyl)-6-methylpyridin-4-yl)-4-(4-fluorophenyl)-6-(2-(4-methylpiperazin-1-yl)ethoxy)pyrimidin-2-amine] was 0.124 µM.

As for `CC(=O)N1CCN(c2ccc(CCOc3nc(N)nc(-c4ccc(F)cc4)c3-c3cc(C)nc(C(F)F)c3)cc2)CC1` [Example 31, 1-(4-[4-[2-([2-amino-5-[2-(difluoromethyl)-6-methylpyridin-4-yl]-6-(4-fluorophenyl)pyrimidin-4-yl]oxy)ethyl]phenyl]piperazin-1-yl)ethan-1-one], the IC50 turned out to be 0.00835 µM.

In the case of `CCN(CC)C(=O)COc1nc(N)nc(-c2ccc(F)cc2)c1-c1cc(C)nc(C(F)(F)F)c1` [Example 27, 2-[[2-amino-6-(4-fluorophenyl)-5-[2-methyl-6-(trifluoromethyl)pyridin-4-yl]pyrimidin-4-yl]oxy]-N,N-diethylacetamide], the IC50 stood at 0.0159 µM. On to `Cc1cc(-c2c(OCCc3ccc(N4CCN(C5COC5)CC4)cc3)nc(N)nc2-c2ccc(F)cc2)cc(C(F)F)n1` [Example 64, 5-[2-(difluoromethyl)-6-methylpyridin-4-yl]-4-(4-fluorophenyl)-6-(2-[4-[4-(oxetan-3-yl)piperazin-1-yl]phenyl]ethoxy)pyrimidin-2-amine], for which the IC50 came out at 0.031 µM. `CCN(CC)C(=O)CN(C)c1nc(N)nc(-c2ccccc2)c1-c1cc(C)nc(C(F)(F)F)c1` [Example 38, 2-((2-amino-5-(2-methyl-6-(trifluoromethyl)pyridin-4-yl)-6-phenylpyrimidin-4-yl)(methyl)amino)-N,N-diethylacetamide] returned an IC50 of 0.816 µM.

Take `CCN(CC)C(=O)CNc1nc(N)nc(-c2ccccc2)c1-c1cc(C)nc(C(F)(F)F)c1` [Example 30, 2-((2-amino-5-(2-methyl-6-(trifluoromethyl)pyridin-4-yl)-6-phenylpyrimidin-4-yl)amino)-N,N-diethylacetamide]: the IC50 stood at 0.00995 µM. Compared with the last molecule, the IC50 is about 82-fold lower.

`Cc1cc(-c2c(OC3CCOCC3)nc(N)nc2-c2ccc(F)cc2)cc(C(F)F)n1` [Example 33, 5-(2-(difluoromethyl)-6-methylpyridin-4-yl)-4-(4-fluorophenyl)-6-((tetrahydro-2H-pyran-4-yl)oxy)pyrimidin-2-amine] came in with an IC50 of 0.0665 µM. In the case of `Cc1cc(-c2c(OCC(=O)NCCN(C)C)nc(N)nc2-c2ccc(F)cc2)cc(C(F)F)n1` [Example 43, 2-((2-amino-5-(2-(difluoromethyl)-6-methylpyridin-4-yl)-6-(4-fluorophenyl)pyrimidin-4-yl)oxy)-N-(2-(dimethylamino)ethyl)acetamide], the concentration for half-maximal inhibition (IC50) was 0.266 µM. Molecule `Cc1cc(-c2c(OCC(=O)NC3CCN(C)CC3)nc(N)nc2-c2ccc(F)cc2)cc(C(F)F)n1` [Example 44, 2-((2-amino-5-(2-(difluoromethyl)-6-methylpyridin-4-yl)-6-(4-fluorophenyl)pyrimidin-4-yl)oxy)-N-(1-methylpiperidin-4-yl)acetamide] came in with an IC50 of 1.21 µM. Compared with the last molecule, the IC50 is about 4.5-fold higher. Same read-out and setting: the value for `Cc1cc(-c2c(OCC(=O)NC3CCOCC3)nc(N)nc2-c2ccc(F)cc2)cc(C(F)F)n1` [Example 40, 2-((2-amino-5-(2-(difluoromethyl)-6-methylpyridin-4-yl)-6-(4-fluorophenyl)pyrimidin-4-yl)oxy)-N-(tetrahydro-2H-pyran-4-yl)acetamide] was 0.295 µM; that for `Cc1cc(-c2c(C(=O)NCc3cccc(C4CC4)n3)nc(N)nc2-c2ccc(F)cc2)cc(C(F)F)n1` [Example 109] was 0.205 µM. Regarding `Cc1cc(-c2c(OCc3nccn3C3CCOCC3)nc(N)nc2-c2ccc(F)cc2)cc(C(F)F)n1` [Example 172, 5-(2-(difluoromethyl)-6-methylpyridin-4-yl)-4-(4-fluorophenyl)-6-((1-(tetrahydro-2H-pyran-4-yl)-1H-imidazol-2-yl)methoxy)pyrimidin-2-amine], the IC50 came to 0.165 µM. Molecule `Cc1cc(-c2c(OCC3CCN(S(C)(=O)=O)CC3)nc(N)nc2-c2ccc(F)cc2)cc(C(F)F)n1` [Example 96, 5-(2-(difluoromethyl)-6-methylpyridin-4-yl)-4-(4-fluorophenyl)-6-((1-(methylsulfonyl)piperidin-4-yl)methoxy)pyrimidin-2-amine] returned an IC50 of 0.061 µM. Against the preceding molecule, the IC50 is about 2.7-fold lower. Consider `Cc1cc(-c2c(C(=O)NC3CCCc4cccnc43)nc(N)nc2-c2ccc(F)cc2)cc(C(F)F)n1` (centres unmarked) [Example 100, 2-amino-5-(2-(difluoromethyl)-6-methylpyridin-4-yl)-6-(4-fluorophenyl)-N-(5,6,7,8-tetrahydroquinolin-8-yl)pyrimidine-4-carboxamide], for which the IC50 was 0.066 µM.

Molecule `Cc1cc(-c2c(OCC(=O)N(C)C3COC3)nc(N)nc2-c2ccc(F)cc2)cc(C(F)F)n1` [Example 101, 2-((2-amino-5-(2-(difluoromethyl)-6-methylpyridin-4-yl)-6-(4-fluorophenyl)pyrimidin-4-yl)oxy)-N-methyl-N-(oxetan-3-yl)acetamide] gave an IC50 of 0.07 µM.

With `Cc1cc(-c2c(OC3COC3)nc(N)nc2-c2ccc(F)cc2)cc(C(F)F)n1` [Example 34, 5-(2-(difluoromethyl)-6-methylpyridin-4-yl)-4-(4-fluorophenyl)-6-(oxetan-3-yloxy)pyrimidin-2-amine], the IC50 was 0.0453 µM. In the case of `Cc1cc(-c2c(CN(C)C)nc(N)nc2-c2ccccc2)cc(C(F)(F)F)n1` [Example 23, 4-((dimethylamino)methyl)-5-(2-methyl-6-(trifluoromethyl)pyridin-4-yl)-6-phenylpyrimidin-2-amine], the IC50 was found to be 1.78 µM. Against the preceding molecule, the IC50 is about 39-fold higher. In turn, `Cc1cc(-c2c(OCCc3ccc(C#N)cc3)nc(N)nc2-c2ccc(F)cc2)cc(C(F)F)n1` [Example 93, 4-(2-((2-amino-5-(2-(difluoromethyl)-6-methylpyridin-4-yl)-6-(4-fluorophenyl)pyrimidin-4-yl)oxy)ethyl)benzonitrile] showed a 50% inhibitory concentration (IC50) of 0.133 µM. Molecule `Cc1cc(-c2c(OCC(=O)Nc3ccccn3)nc(N)nc2-c2ccc(F)cc2)cc(C(F)F)n1` [Example 107, 2-((2-amino-5-(2-(difluoromethyl)-6-methylpyridin-4-yl)-6-(4-fluorophenyl)pyrimidin-4-yl)oxy)-N-(pyridin-2-yl)acetamide] showed an IC50 of 0.044 µM. `CC(=O)N1CCN(c2ccc(CCOc3nc(N)nc(-c4ccccc4)c3-c3cc(C)nc(C(F)(F)F)c3)cc2)CC1` [Example 20, 1-(4-(4-(2-((2-amino-5-(2-methyl-6-(trifluoromethyl)pyridin-4-yl)-6-phenylpyrimidin-4-yl)oxy)ethyl)phenyl)piperazin-1-yl)ethan-1-one]: the IC50 is 0.0266 µM.

`CNCc1nc(N)nc(-c2ccccc2)c1-c1cc(C)nc(C(F)(F)F)c1` [Example 22, 5-(2-methyl-6-(trifluoromethyl)pyridin-4-yl)-4-((methylamino)methyl)-6-phenylpyrimidin-2-amine] showed an IC50 of 1.78 µM. Still for that read-out and setting: under `Cc1cc(-c2c(CO)nc(N)nc2-c2ccccc2)cc(C(F)(F)F)n1` [Example 19, (2-amino-5-(2-methyl-6-(trifluoromethyl)pyridin-4-yl)-6-phenylpyrimidin-4-yl)methanol] stands 0.052 µM.

Still in this test, the particulars now being: Tag-lite adenosine A2A receptor ligand binding, HTRF.
`Cc1cc(-c2c(OCc3nnn(CC4CC4)n3)nc(N)nc2-c2ccc(F)cc2)cc(C(F)F)n1` [Example 220, 4-((2-(cyclopropylmethyl)-2H-tetrazol-5-yl)methoxy)-5-(2-(difluoromethyl)-6-methylpyridin-4-yl)-6-(4-fluorophenyl)pyrimidin-2-amine] displayed an IC50 of 0.014 µM. This lies in the double-digit nanomolar range.

With `Cc1cc(-c2c(OCc3nccn3CCC(C)(C)C(=O)O)nc(N)nc2-c2ccc(F)cc2)cc(C(F)F)n1` [Example 216, 4-(2-(((2-amino-5-(2-(dilfluoromethyl)-6-methylpyridin-4-yl)-6-(4-fluorophenyl)pyrimidin-4-yl)oxy)methyl)-1H-imidazol-1-yl)-2,2-dimethylbutanoic acid], the IC50 is 0.306 µM. Compared with the last molecule, the IC50 is about 22-fold higher. Consider `CCn1cnnc1COc1nc(N)nc(-c2ccc(F)cc2)c1-c1cc(C)nc(C(F)F)c1` [Example 222, 5-(2-(difluoromethyl)-6-methylpyridin-4-yl)-4-((4-ethyl-4H-1,2,4-triazol-3-yl)methoxy)-6-(4-fluorophenyl)pyrimidin-2-amine], for which the IC50 is 0.015 µM.
